Assay results published in BindingDB's records for doi:10.1016/s0960-894x(02)00131-2 (Shire Biochem, 2002).

target: Prothrombin/thrombin (Homo sapiens) (UniProt P00734); test: Inhibition of amidolytic activity of thrombin

SMILES | Ki [nM]
N=C(N)c1ccc(CNC(=O)[C@@H]2CC[C@H]3CN(S(=O)(=O)CC(c4ccccc4)c4ccccc4)CC(=O)N32)cc1 [(6S,8aS)-2-(2,2-Diphenyl-ethanesulfonyl)-4-oxo-octahydro-pyrrolo[1,2-a]pyrazine-6-carboxylic acid 4-carbamimidoyl-benzylamide] | 1
N=C(N)N1CCC(CNC(=O)[C@@H]2CC[C@H]3CN(S(=O)(=O)CC(c4ccccc4)c4ccccc4)CC(=O)N32)CC1 [(6S,8aS)-2-(2,2-Diphenyl-ethanesulfonyl)-4-oxo-octahydro-pyrrolo[1,2-a]pyrazine-6-carboxylic acid (1-carbamimidoyl-piperidin-4-ylmethyl)-amide] | 8
N[C@H]1CC[C@H](CNC(=O)[C@@H]2CC[C@H]3CN(S(=O)(=O)CC(c4ccccc4)c4ccccc4)CC(=O)N32)CC1 [(6S,8aS)-2-(2,2-Diphenyl-ethanesulfonyl)-4-oxo-octahydro-pyrrolo[1,2-a]pyrazine-6-carboxylic acid (4-amino-cyclohexylmethyl)-amide] | 5
Cc1nc(N)ccc1CNC(=O)[C@@H]1CC[C@H]2CN(S(=O)(=O)CC(c3ccccc3)c3ccccc3)CC(=O)N21 [(6S,8aS)-2-(2,2-Diphenyl-ethanesulfonyl)-4-oxo-octahydro-pyrrolo[1,2-a]pyrazine-6-carboxylic acid (6-amino-2-methyl-pyridin-3-ylmethyl)-amide] | 48
Nc1ccc(CNC(=O)[C@@H]2CC[C@H]3CN(S(=O)(=O)CC(c4ccccc4)c4ccccc4)CC(=O)N32)cn1 [(6S,8aS)-2-(2,2-Diphenyl-ethanesulfonyl)-4-oxo-octahydro-pyrrolo[1,2-a]pyrazine-6-carboxylic acid (6-amino-pyridin-3-ylmethyl)-amide] | 35
N=C(NO)N1CCC(CNC(=O)[C@@H]2CC[C@H]3CN(S(=O)(=O)CC(c4ccccc4)c4ccccc4)CC(=O)N32)CC1 [(6S,8aS)-2-(2,2-Diphenyl-ethanesulfonyl)-4-oxo-octahydro-pyrrolo[1,2-a]pyrazine-6-carboxylic acid [1-(N-hydroxycarbamimidoyl)-piperidin-4-ylmethyl]-amide] | 2
N=C(NO)N1CCC(CNC(=O)[C@@H]2CC[C@H]3CN(C(=O)CC(c4ccccc4)c4ccccc4)CC(=O)N32)CC1 [(6S,8aS)-2-(3,3-Diphenyl-propionyl)-4-oxo-octahydro-pyrrolo[1,2-a]pyrazine-6-carboxylic acid [1-(N-hydroxycarbamimidoyl)-piperidin-4-ylmethyl]-amide] | 25
Cc1cc(C(=N)N)ccc1CNC(=O)[C@@H]1CC[C@H]2CN(S(=O)(=O)C(c3ccccc3)c3ccccc3)CC(=O)N21 [(6S,8aS)-2-(Diphenyl-methanesulfonyl)-4-oxo-octahydro-pyrrolo[1,2-a]pyrazine-6-carboxylic acid 4-carbamimidoyl-2-methyl-benzylamide] | 2
N=C(N)c1ccc(CNC(=O)[C@@H]2CC[C@H]3CN(S(=O)(=O)C(c4ccccc4)c4ccccc4)CC(=O)N32)cc1 [(6S,8aS)-2-(Diphenyl-methanesulfonyl)-4-oxo-octahydro-pyrrolo[1,2-a]pyrazine-6-carboxylic acid 4-carbamimidoyl-benzylamide] | 1
N=C(N)N1CCC(CNC(=O)[C@@H]2CC[C@H]3CN(S(=O)(=O)C(c4ccccc4)c4ccccc4)CC(=O)N32)CC1 [(6S,8aS)-2-(Diphenyl-methanesulfonyl)-4-oxo-octahydro-pyrrolo[1,2-a]pyrazine-6-carboxylic acid (1-carbamimidoyl-piperidin-4-ylmethyl)-amide] | 9
O=C(NCc1ccc2nc[nH]c2c1)[C@@H]1CC[C@H]2CN(S(=O)(=O)C(c3ccccc3)c3ccccc3)CC(=O)N21 [(6S,8aS)-2-(Diphenyl-methanesulfonyl)-4-oxo-octahydro-pyrrolo[1,2-a]pyrazine-6-carboxylic acid (1H-benzoimidazol-5-ylmethyl)-amide] | 75
N[C@H]1CC[C@H](CNC(=O)[C@@H]2CC[C@H]3CN(S(=O)(=O)C(c4ccccc4)c4ccccc4)CC(=O)N32)CC1 [(6S,8aS)-2-(Diphenyl-methanesulfonyl)-4-oxo-octahydro-pyrrolo[1,2-a]pyrazine-6-carboxylic acid (4-amino-cyclohexylmethyl)-amide] | 5
N=C(N)[C@H]1CC[C@H](CNC(=O)[C@@H]2CC[C@H]3CN(S(=O)(=O)C(c4ccccc4)c4ccccc4)CC(=O)N32)CC1 [(6S,8aS)-2-(Diphenyl-methanesulfonyl)-4-oxo-octahydro-pyrrolo[1,2-a]pyrazine-6-carboxylic acid (4-carbamimidoyl-cyclohexylmethyl)-amide] | 2
N=C(N)c1ccc2c(c1)CCC2NC(=O)[C@@H]1CC[C@H]2CN(S(=O)(=O)C(c3ccccc3)c3ccccc3)CC(=O)N21 (stereo partly drawn) [(6S,8aS)-2-(Diphenyl-methanesulfonyl)-4-oxo-octahydro-pyrrolo[1,2-a]pyrazine-6-carboxylic acid (5-carbamimidoyl-indan-1-yl)-amide] | 75
Cc1nc(N)ccc1CNC(=O)[C@@H]1CC[C@H]2CN(S(=O)(=O)C(c3ccccc3)c3ccccc3)CC(=O)N21 [(6S,8aS)-2-(Diphenyl-methanesulfonyl)-4-oxo-octahydro-pyrrolo[1,2-a]pyrazine-6-carboxylic acid (6-amino-2-methyl-pyridin-3-ylmethyl)-amide] | 10
N=C(NO)N1CCC(CNC(=O)[C@@H]2CC[C@H]3CN(S(=O)(=O)C(c4ccccc4)c4ccccc4)CC(=O)N32)CC1 [(6S,8aS)-2-(Diphenyl-methanesulfonyl)-4-oxo-octahydro-pyrrolo[1,2-a]pyrazine-6-carboxylic acid [1-(N-hydroxycarbamimidoyl)-piperidin-4-ylmethyl]-amide] | 2
Nc1ncc(CCNC(=O)[C@@H]2CC[C@H]3CN(S(=O)(=O)C(c4ccccc4)c4ccccc4)CC(=O)N32)[nH]1 [(6S,8aS)-2-(Diphenyl-methanesulfonyl)-4-oxo-octahydro-pyrrolo[1,2-a]pyrazine-6-carboxylic acid [2-(2-amino-1H-imidazol-4-yl)-ethyl]-amide] | 135
N=C(NO)N1CCC(CNC(=O)[C@@H]2CC[C@H]3CN(S(=O)(=O)CCc4ccccc4)CC(=O)N32)CC1 [(6S,8aS)-4-Oxo-2-(2-phenyl-ethanesulfonyl)-octahydro-pyrrolo[1,2-a]pyrazine-6-carboxylic acid [1-(N-hydroxycarbamimidoyl)-piperidin-4-ylmethyl]-amide] | 14
N=C(N)N1CCC(CNC(=O)[C@@H]2CC[C@H]3CN(C(=O)CCc4ccccc4)CC(=O)N32)CC1 [(6S,8aS)-4-Oxo-2-(3-phenyl-propionyl)-octahydro-pyrrolo[1,2-a]pyrazine-6-carboxylic acid (1-carbamimidoyl-piperidin-4-ylmethyl)-amide] | 180
